# From patent US7407767B2, “Method of screening remedy for heart disease and medicinal composition for treating heart disease” (Ono Pharmaceutical Co., Ltd., priority 2003, dated 2008)
# Test system: PD-1-deficient mouse serum
# Experiment: Competition with recombinant cardiac troponin I in western blotting of normal mouse heart extract
# Type: binding
# Conditions: recombinant cardiac troponin I added at 1, 10 and 100 μg/ml
# Procedure: PD-1-deficient mouse serum (mouse #101, #104 and #117) was used for western blotting of normal mouse heart extract. For the competition assay, recombinant cardiac troponin I was added to immune blot solution at 1, 10, and 100 μg/ml. The 30-kDa antigen recognized by PD-1-deficient mouse serum was depleted by immunoprecipitation with antibodies to anti-myocardial troponin I and was recoverable from the pellet fraction (FIG. 2 (b)).
# Thus, the band was confirmed to consist solely of cardiac troponin I.
substance,measurement,value
recombinant cardiac troponin I: mouse cardiac troponin I protein obtained by PreScission protease cleavage of a GST-fusion recombinant protein,intensity of the 30-kDa band recognized by PD-1-deficient mouse serum,weakened in a dose-dependent manner
